Source: article PMC3129543 (Molecular informatics, 2011)
Read-outs that look alike come from different tables or passages of the source.

What was measured:
[1] = target: T1, glutamate racemase from Bacillus subtilis (RacE) (Bacillus subtilis, UniProt P94556); type: biochemical
[2] = 1 and derivatives thereof; target not determined; cited from earlier work
[3] = 1 and derivatives thereof; cited from earlier work
[4] = target: T1, glutamate racemase from Bacillus subtilis (RacE); conditions: BsGR; presented previously; cited from earlier work

T1 sequence (P94556 whole entry): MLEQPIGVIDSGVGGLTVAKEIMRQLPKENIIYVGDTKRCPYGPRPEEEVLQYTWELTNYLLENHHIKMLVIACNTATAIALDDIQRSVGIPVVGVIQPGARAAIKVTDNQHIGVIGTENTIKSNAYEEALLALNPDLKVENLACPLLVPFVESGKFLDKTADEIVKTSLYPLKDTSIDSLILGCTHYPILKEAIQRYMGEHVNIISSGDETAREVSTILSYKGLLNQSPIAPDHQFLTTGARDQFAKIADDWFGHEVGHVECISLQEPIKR

SMILES	ligand efficiency [1]	mode of inhibition ([1]; verified by global fitting to varying inhibition models)	antibacterial and antifungal activity [2]	toxicity [3]	mode of inhibition [4]
O=S(=O)(O)c1nc2ccccc2[nH]1 [Compound 1, benzimidazole-2-sulfonic acid]	0.53 kcal/mol/heavy atom	competitive inhibitor	antibacterial and antifungal activity	low toxicity	–
O=c1c(O)c(O)c(=O)c1=O [Compound 2, Croconic acid]	–	–	–	–	competitive inhibitors
O=S(=O)(O)c1ccc(O)c(S(=O)(=O)O)c1 [Compound 3, 4-Hydroxy-1,3-benzenedisulfonic acid]	–	–	–	–	competitive inhibitors
O=C(O)c1cccc(C(=O)O)n1 [Compound 9, dipicolinic acid]	–	–	–	–	competitive inhibitors
